# From patent publication US9624215B2, “Amine derivative or salt thereof” (TOYAMA CHEMICAL CO., LTD., priority 2012, dated 2017)
# pIC50: −log10 of the molar value.
# Test system: normal human neonatal foreskin epidermal keratinocytes (NHEK-F)
# Experiment: Cell proliferation inhibition test
# Assay type: cell-based
# Details: Keratinocyte, 72 h, NHEK-F cells, three days incubation, ATPlite or CellTiterGlo, read-out: IC50 (concentration of the compound at which the cell count is reduced by 50%)
# Procedure: 2×10^3 normal human neonatal foreskin epidermal keratinocytes (NHEK-F) (Kurabo, KK-4009) were suspended in 100 μL of Humedia-EG2 (Kurabo, KK-2150S) medium, plated in a 96-well plate and incubated overnight. The test compound was added on the following day and the cells were incubated for further three days. The cell count was determined using ATPlite (PerkinElmer, 6016739) or CellTiterGlo (Promega, G7573).
# The inhibition rate was calculated from the following formula to determine the concentration of the compound at which the cell count is reduced by 50% (IC50). Inhibition rate (%)=100−(cell count in the presence of test compound/cell count in the absence of test compound)×100
row,SMILES,pIC50
1,"O=C(O)c1cc(Cl)ccc1Nc1ccc2ccn(Cc3ccccc3)c2c1 [Example 4, 2-((1-benzyl-1H-indol-6-yl)amino)-5-chlorobenzoic acid]",6.00 to 7.00
2,"O=C(O)c1cc(Cl)ccc1Nc1cccc2c1ccn2Cc1ccccc1 [Example 6, 2-((1-benzyl-1H-indol-4-yl)amino)-5-chlorobenzoic acid]",7.00 to 8.00
3,"O=C(O)c1cc(Cl)ccc1Nc1ccnc2c1ccn2Cc1ccccc1 [Example 9, 2-((1-benzyl-1H-pyrrolo(2,3-b)pyridin-4-yl)amino)-5-chlorobenzoic acid]",7.00 to 8.00
4,"O=C(O)c1cc(Cl)ccc1Nc1ccc2c(ccn2Cc2cccc(OCc3ccccn3)c2)c1 [Example 19, 5-chloro-2-((1-(3-(pyridin-2-ylmethoxy)benzyl)-1H-indol-5-yl)amino)benzoic acid]",≥ 8.00
5,"O=C(O)c1cc(Cl)ccc1Nc1ccc2c(c1)cc(CO)n2Cc1ccccc1 [Example 25, 2-((1-benzyl-2-(hydroxymethyl)-1H-indol-5-yl)amino)-5-chlorobenzoic acid]",7.00 to 8.00
6,"Cn1cc(-c2ccccc2)c2ccc(Nc3ncc(C4CC4)cc3C(=O)O)cc21 [Example 41, 5-cyclopropyl-2-((1-methyl-3-phenyl-1H-indol-6-yl)amino)nicotinic acid]",7.00 to 8.00
7,"O=C(O)c1cc(C2CC2)cnc1Nc1ccc2c(-c3ccccc3)c[nH]c2c1 [Example 43, 5-cyclopropyl-2-((3-phenyl-1H-indol-6-yl)amino)nicotinic acid]",7.00 to 8.00
8,"O=C(O)c1cc(C2CC2)cnc1Nc1ccc2c(-c3ccccc3)cn(CC3CC3)c2c1 [Example 45, 5-cyclopropyl-2-((1-(cyclopropylmethyl)-3-phenyl-1H-indol-6-yl)amino)nicotinic acid]",7.00 to 8.00
9,"O=C(O)c1cc(Cl)ccc1Nc1ccc2c(ccn2-c2ccc(Cl)cc2)c1 [Example 47, 5-chloro-2-((1-(4-chlorophenyl)-1H-indol-5-yl)amino)benzoic acid]",≥ 8.00
10,"O=C(O)c1cc(Cl)ccc1Nc1ccc2c(ccn2-c2cccnc2)c1 [Example 49, 5-chloro-2-((1-(pyridin-3-yl)-1H-indol-5-yl)amino)benzoic acid]",7.00 to 8.00
11,"O=C(O)c1cc(Cl)ccc1Nc1ccc2c(c1)c(C(=O)c1ccccc1)cn2Cc1ccccc1 [Example 86, 2-((3-benzoyl-1-benzyl-1H-indol-5-yl)amino)-5-chlorobenzoic acid]",6.00 to 7.00
12,"O=C(O)c1cc(Cl)ccc1Nc1ccc2c(c1)c(Cc1ccccc1)cn2Cc1ccccc1 [Example 88, 5-chloro-2-((1,3-dibenzyl-1H-indol-5-yl)amino)benzoic acid]",7.00 to 8.00
13,"Cc1ccc(-n2ccc3cc(Nc4ccc(Cl)cc4C(=O)O)ccc32)nn1 [Example 100, 5-chloro-2-((1-(6-methylpyridazin-3-yl)-1H-indol-5-yl)amino)benzoic acid]",6.00 to 7.00
14,"CC(C)c1ccc(Nc2ccc3c(ccn3Cc3ccccc3)c2)c(C(=O)O)c1 [Example 114, 2-((1-benzyl-1H-indol-5-yl)amino)-5-isopropylbenzoic acid]",≥ 8.00
15,"O=C(O)c1cc(C(F)(F)F)cnc1Nc1ccc2c(ccn2Cc2ccccc2)c1 [Example 116, 2-((1-benzyl-1H-indol-5-yl)amino)-5-(trifluoromethyl)nicotinic acid]",≥ 8.00
16,"CCn1ccc2cc(Nc3ncc(C4CC4)cc3C(=O)O)ccc21 [Example 121, 5-cyclopropyl-2-((1-ethyl-1H-indol-5-yl)amino)nicotinic acid]",6.00 to 7.00
17,"CC(C)n1ccc2cc(Nc3ncc(C4CC4)cc3C(=O)O)ccc21 [Example 123, 5-cyclopropyl-2-((1-isopropyl-1H-indol-5-yl)amino)nicotinic acid]",7.00 to 8.00
18,"Cc1cnc(Nc2ccc3c(ccn3Cc3ccccc3)c2)c(C(=O)O)c1 [Example 125, 2-((1-benzyl-1H-indol-5-yl)amino)-5-methylnicotinic acid]",7.00 to 8.00
19,"COCCn1ccc2cc(Nc3ncc(C4CC4)cc3C(=O)O)ccc21 [Example 129, 5-cyclopropyl-2-((1-(2-methoxyethyl)-1H-indol-5-yl)amino)nicotinic acid]",6.00 to 7.00
20,"COc1cnc(Nc2ccc3c(ccn3Cc3ccccc3)c2)c(C(=O)O)c1 [Example 132, 2-((1-benzyl-1H-indol-5-yl)amino)-5-methoxynicotinic acid]",7.00 to 8.00
21,"O=C(O)c1cc(C2CC2)cnc1Nc1ccc2c(ccn2Cc2cccnc2)c1 [Example 137, 5-cyclopropyl-2-((1-(pyridin-3-ylmethyl)-1H-indol-5-yl)amino)nicotinic acid]",7.00 to 8.00
22,"O=C(O)c1cc(C2CC2)cnc1Nc1ccc2c(ccn2CC2CC2)c1 [Example 146, 5-cyclopropyl-2-((1-(cyclopropylmethyl)-1H-indol-5-yl)amino)nicotinic acid]",7.00 to 8.00

row,SMILES,pIC50
1,"O=C(O)c1cc(C2CC2)cnc1Nc1ccc2c(ccn2Cc2ccncc2)c1 [Example 148, 5-cyclopropyl-2-((1-(pyridin-4-ylmethyl)-1H-indol-5-yl)amino)nicotinic acid]",6.00 to 7.00
2,"O=C(O)c1cc(C2CC2)cnc1Nc1ccc2[nH]cc(-c3ccccc3)c2c1 [Example 156, 5-cyclopropyl-2-((3-phenyl-1H-indol-5-yl)amino)nicotinic acid]",6.00 to 7.00
3,"Cn1c(C(C)(C)C)cc2cc(Nc3ncc(C4CC4)cc3C(=O)O)ccc21 [Example 157, 2-((2-(tert-butyl)-1-methyl-1H-indol-5-yl)amino)-5-cyclopropylnicotinic acid]",6.00 to 7.00
4,"CCn1c(C(C)(C)C)cc2cc(Nc3ncc(C4CC4)cc3C(=O)O)ccc21 [Example 158, 2-((2-(tert-butyl)-1-ethyl-1H-indol-5-yl)amino)-5-cyclopropylnicotinic acid]",7.00 to 8.00
5,"CS(=O)(=O)NC(=O)c1cc(C2CC2)cnc1Nc1ccc2c(ccn2-c2ccccc2)c1 [Example 159, 5-cyclopropyl-N-(methylsulfonyl)-2-((1-phenyl-1H-indol-5-yl)amino)nicotinamide]",7.00 to 8.00
6,"CCn1c2c(c3cc(Nc4ncc(C5CC5)cc4C(=O)O)ccc31)CCCC2 [Example 166, 5-cyclopropyl-2-((9-ethyl-2,3,4,9-tetrahydro-1H-carbazol-6-yl)amino)nicotinic acid]",6.00 to 7.00
7,"CCn1cc(-c2ccccc2)c2cc(Nc3ncc(C4CC4)cc3C(=O)O)ccc21 [Example 170, 5-cyclopropyl-2-((1-ethyl-3-phenyl-1H-indol-5-yl)amino)nicotinic acid]",7.00 to 8.00
8,"CC(C)Cn1c(CO)cc2cc(Nc3ncc(C4CC4)cc3C(=O)O)ccc21 [Example 175, 5-cyclopropyl-2-((2-(hydroxymethyl)-1-isobutyl-1H-indol-5-yl)amino)nicotinic acid]",6.00 to 7.00
9,"O=C(O)c1cc(C2CC2)cnc1Nc1ccc2c(-c3ccccc3)cccc2c1 [Example 177, 5-cyclopropyl-2-((5-phenylnaphthalen-2-yl)amino)nicotinic acid]",≥ 8.00
10,"O=C(O)c1cc(C2CC2)cnc1Nc1ccc2cccc(-c3ccccc3)c2c1 [Example 179, 5-cyclopropyl-2-((8-phenylnaphthalen-2-yl)amino)nicotinic acid]",≥ 8.00
11,"O=C(O)c1cc(C2CC2)cnc1Nc1ccc2c(c1)CCCN2c1ccccc1 [Example 181, 5-cyclopropyl-2-((1-phenyl-1,2,3,4-tetrahydroquinolin-6-yl)amino)nicotinic acid]",≥ 8.00
12,"O=C(O)c1cc(C2CC2)cnc1Nc1ccc2c(c1)CCCN2Cc1ccccc1 [Example 183, 2-((1-benzyl-1,2,3,4-tetrahydroquinolin-6-yl)amino)-5-cyclopropylnicotinic acid]",7.00 to 8.00
13,"O=C(O)c1cc(C2CC2)cnc1Nc1cccc2c(-c3ccccc3)nccc12 [Example 185, 5-cyclopropyl-2-((1-phenylisoquinolin-5-yl)amino)nicotinic acid]",≥ 8.00
14,"O=C(O)c1cc(C2CC2)cnc1Nc1cccc2c(-c3ccccc3)ccnc12 [Example 187, 5-cyclopropyl-2-((4-phenylquinolin-8-yl)amino)nicotinic acid]",≥ 8.00
15,"Cn1ccc2cc(Nc3ncc(C4CC4)cc3C(=O)O)cc(-c3ccc(-c4ccccc4)cc3)c21 [Example 191, 2-((7-([1,1′-biphenyl]-4-yl)-1-methyl-1H-indol-5-yl)amino)-5-cyclopropylnicotinic acid]",≥ 8.00
16,"O=C(O)c1cc(C2CC2)ccc1Nc1ccc2c(ccn2C(=O)c2ccc(Cl)cc2)c1 [Example 204, 2-((1-(4-chlorobenzoyl)-1H-indol-5-yl)amino)-5-cyclopropylbenzoic acid]",7.00 to 8.00
17,"O=C(O)c1nc(C2CC2)ccc1Nc1ccc2c(ccn2Cc2ccccc2)c1 [Example 210, 3-((1-benzyl-1H-indol-5-yl)amino)-6-cyclopropylpicolinic acid]",7.00 to 8.00
18,"O=C(O)c1cc(C2CC2)cnc1Nc1ccc2cc(-c3ccccc3)ccc2c1 [Example 218, 5-cyclopropyl-2-((6-phenylnaphthalen-2-yl)amino)nicotinic acid]",7.00 to 8.00
19,"O=C(O)c1cc(C2CC2)cnc1Nc1cc(-c2ccccc2)c2[nH]ccc2c1 [Example 227, 5-cyclopropyl-2-((7-phenyl-1H-indol-5-yl)amino)nicotinic acid]",7.00 to 8.00
20,"O=C(O)c1cc(Cl)ncc1Nc1ccc2c(ccn2Cc2ccccc2)c1 [Example 229, 5-((1-benzyl-1H-indol-5-yl)amino)-2-chloroisonicotinic acid]",7.00 to 8.00
21,"O=C(O)c1cc(C2CC2)cnc1Nc1ccc2c(ccn2-c2cccc(F)c2)c1 [Example 231, 5-cyclopropyl-2-((1-(3-fluorophenyl)-1H-indol-5-yl)amino)nicotinic acid]",≥ 8.00
